Results published in ChEMBL document CHEMBL1201862, “PubChem BioAssay data set” (2004).
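Interpolation was linear, between the two tested concentrations surrounding the appropriate level; five concentrations were tested over 48 hours in 96-well plates. At the GI50, growth is halved.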 Activity calls are given as the source filed them. Rule as the data show it: active = GI50 up to about 1.1 µM and inactive = higher.

Legend:
Test in all cases: growth of human tumour cells (NCI), 48 h
OVCAR-8 = test system: OVCAR-8
SW-620 = test system: SW-620
K562 = test system: K562
SR = test system: SR
DMS-273 = test system: DMS-273
NCI-H226 = test system: NCI-H226
HOP-18 = test system: HOP-18
XF498 = test system: XF498
KM-20L2 = test system: KM-20L2
RXF 393 = test system: RXF 393
COLO 205 = test system: COLO 205
HCT-116 = test system: HCT-116
LXFL 529 = test system: LXFL 529
UACC-62 = test system: UACC-62
M14 = test system: M14
M19-MEL = test system: M19-MEL
TK-10 = test system: TK-10
IGROV-1 = test system: IGROV-1
HL-60 = test system: HL-60
A498 = test system: A498
UACC-257 = test system: UACC-257
HOP-92 = test system: HOP-92
KM12 = test system: KM12
LOX IMVI = test system: LOX IMVI
OVCAR-4 = test system: OVCAR-4
U-251 = test system: U-251
DMS-114 = test system: DMS-114
SF-539 = test system: SF-539
DLD-1 = test system: DLD-1
NCI-H460 = test system: NCI-H460
MOLT-4 = test system: MOLT-4
ACHN = test system: ACHN
EKVX = test system: EKVX
HT-29 = test system: HT-29
A549 = test system: A549
HCC 2998 = test system: HCC 2998
CAKI-1 = test system: CAKI-1
786-0 = test system: 786-0
Malme-3M = test system: Malme-3M
OVCAR-3 = test system: OVCAR-3
HCT-15 = test system: HCT-15
SNB-19 = test system: SNB-19
UO-31 = test system: UO-31
SN12C = test system: SN12C
SK-MEL-5 = test system: SK-MEL-5
SNB-78 = test system: SNB-78
CCRF-CEM = test system: CCRF-CEM
SNB-75 = test system: SNB-75
SF-268 = test system: SF-268
SK-MEL-28 = test system: SK-MEL-28
HOP-62 = test system: HOP-62
NCI-H23 = test system: NCI-H23
NCI-H522 = test system: NCI-H522
SK-OV-3 = test system: SK-OV-3
RXF 631 = test system: RXF 631
SF-295 = test system: SF-295
SK-MEL-2 = test system: SK-MEL-2
OVCAR-5 = test system: OVCAR-5
RPMI-8226 = test system: RPMI-8226

`O=C(NC1C=Nc2ccccc2NC1=O)c1ccccc1Cl` (stereo not given) was tested, and the GI50 (OVCAR-8) was 43 µM (inactive), the GI50 (SW-620) was 13.6 µM (inactive) and the GI50 (K562) was 11.1 µM (inactive). For the same compound, the GI50 (SR) was 31.8 µM (inactive), the GI50 (DMS-273) was 26.8 µM (inactive) and the GI50 (NCI-H226) was 94 µM (inactive). For the same compound, the GI50 (HOP-18) was 48 µM (inactive), the GI50 (XF498) was 22.2 µM (inactive) and the GI50 (KM-20L2) was 55.6 µM (inactive). The GI50 (RXF 393) was 13 µM (inactive), the GI50 (COLO 205) was 22.7 µM (inactive) and the GI50 (HCT-116) was 39.1 µM (inactive). The GI50 (LXFL 529) was 28.6 µM (inactive), the GI50 (UACC-62) was 33.6 µM (inactive) and the GI50 (M14) was 80.5 µM (inactive). For the same compound, the GI50 (M19-MEL) was 57 µM (inactive), the GI50 (TK-10) was 46.2 µM (inactive) and the GI50 (IGROV-1) was 36.8 µM (inactive). For the same compound, the GI50 (HL-60) was 13.5 µM (inactive), the GI50 (A498) was 28.8 µM (inactive) and the GI50 (UACC-257) was 38.5 µM (inactive). The GI50 (HOP-92) was 31.4 µM (inactive), the GI50 (KM12) was 50.7 µM (inactive) and the GI50 (LOX IMVI) was 18.2 µM (inactive). For the same compound, the GI50 (OVCAR-4) was 33.3 µM (inactive), the GI50 (U-251) was 28.8 µM (inactive) and the GI50 (DMS-114) was 16.1 µM (inactive). The GI50 (SF-539) was > 100 µM (inactive), the GI50 (DLD-1) was 59.2 µM (inactive) and the GI50 (NCI-H460) was 44 µM (inactive). The GI50 (MOLT-4) was 12.6 µM (inactive), the GI50 (ACHN) was 39.6 µM (inactive) and the GI50 (EKVX) was 74.8 µM (inactive). The GI50 (HT-29) was 55.7 µM (inactive), the GI50 (A549) was 48 µM (inactive) and the GI50 (HCC 2998) was 56.4 µM (inactive). For the same compound, the GI50 (CAKI-1) was 46.8 µM (inactive), the GI50 (786-0) was 56 µM (inactive) and the GI50 (Malme-3M) was 58.1 µM (inactive). The GI50 (OVCAR-3) was 28.4 µM (inactive), the GI50 (HCT-15) was 33.7 µM and the GI50 (SNB-19) was > 100 µM (inactive). The GI50 (UO-31) was 24.9 µM (inactive), the GI50 (SN12C) was 64.4 µM (inactive) and the GI50 (SK-MEL-5) was 45.8 µM (inactive). For the same compound, the GI50 (SNB-78) was 93.1 µM (inactive), the GI50 (CCRF-CEM) was 14 µM (inactive) and the GI50 (SNB-75) was 50 µM (inactive). For the same compound, the GI50 (SF-268) was 51.9 µM (inactive), the GI50 (SK-MEL-28) was > 100 µM (inactive) and the GI50 (HOP-62) was > 100 µM (inactive). For the same compound, the GI50 (NCI-H23) was 43.9 µM (inactive), the GI50 (NCI-H522) was 20.1 µM (inactive) and the GI50 (SK-OV-3) was > 100 µM (inactive). For the same compound, the GI50 (RXF 631) was 22 µM (inactive), the GI50 (SF-295) was 57.1 µM (inactive) and the GI50 (SK-MEL-2) was 36.9 µM (inactive). For the same compound, the GI50 (OVCAR-5) was > 100 µM (inactive).

For `Cn1c2c([N+](=O)[O-])cccc2c(=O)c2c(O)cc3c(c21)C=CC(C)(C)O3`, the GI50 (OVCAR-8) was 29.6 µM (inactive), the GI50 (SW-620) was 69.3 µM (inactive) and the GI50 (K562) was 39.3 µM (inactive). For the same compound, the GI50 (DMS-273) was 33.2 µM (inactive), the GI50 (HOP-18) was < 0.01 µM (active) and the GI50 (XF498) was 11.5 µM (inactive). The GI50 (KM-20L2) was 17.7 µM (inactive), the GI50 (RXF 393) was 18.1 µM (inactive) and the GI50 (COLO 205) was 44.8 µM (inactive). For the same compound, the GI50 (LXFL 529) was 25.6 µM (inactive), the GI50 (UACC-62) was 21.7 µM (inactive) and the GI50 (M14) was 86.7 µM (inactive). For the same compound, the GI50 (TK-10) was 54.6 µM (inactive), the GI50 (IGROV-1) was 34.4 µM (inactive) and the GI50 (HL-60) was 16.6 µM (inactive). For the same compound, the GI50 (A498) was 5.51 µM (inactive), the GI50 (UACC-257) was 46.5 µM (inactive) and the GI50 (KM12) was 23.2 µM (inactive). For the same compound, the GI50 (LOX IMVI) was 25.2 µM (inactive), the GI50 (OVCAR-4) was 20.8 µM (inactive) and the GI50 (U-251) was > 100 µM (inactive). The GI50 (DMS-114) was 22.8 µM (inactive), the GI50 (SF-539) was 22.5 µM (inactive) and the GI50 (DLD-1) was 24.8 µM (inactive). The GI50 (NCI-H460) was 36.6 µM (inactive), the GI50 (MOLT-4) was 42.9 µM (inactive) and the GI50 (ACHN) was 43.5 µM (inactive). For the same compound, the GI50 (EKVX) was 6.59 µM (inactive), the GI50 (HT-29) was 23.4 µM (inactive) and the GI50 (A549) was 34.8 µM (inactive). The GI50 (RPMI-8226) was 18.4 µM (inactive), the GI50 (HCC 2998) was 20.7 µM (inactive) and the GI50 (CAKI-1) was 18.7 µM (inactive). The GI50 (786-0) was 32 µM (inactive), the GI50 (Malme-3M) was 40.2 µM (inactive) and the GI50 (HCT-15) was 20.7 µM. For the same compound, the GI50 (SNB-19) was 41.7 µM (inactive), the GI50 (UO-31) was 40.6 µM (inactive) and the GI50 (SN12C) was 52 µM (inactive). The GI50 (SK-MEL-5) was 28.3 µM (inactive), the GI50 (SNB-78) was 38 µM (inactive) and the GI50 (CCRF-CEM) was 41 µM (inactive). The GI50 (SNB-75) was 23.9 µM (inactive), the GI50 (SF-268) was 38.9 µM (inactive) and the GI50 (SK-MEL-28) was 84.5 µM (inactive). For the same compound, the GI50 (NCI-H23) was 30.8 µM (inactive), the GI50 (NCI-H522) was 11.2 µM (inactive) and the GI50 (SK-OV-3) was 46.7 µM (inactive). The GI50 (RXF 631) was 33.7 µM (inactive), the GI50 (SF-295) was 24.1 µM (inactive) and the GI50 (SK-MEL-2) was 35.9 µM (inactive). The GI50 (OVCAR-5) was 35.7 µM (inactive).
